Laboratory results taken from US10350213B2 (AI Therapeutics, Inc., priority 2015, dated 2019).

Assays:
Assay in all cases: CellTiterGlo cell viability assay
Assay type in all cases: cell-based
[1] = tested on: GA-10 (Human Burkitt's lymphoma)
Description: (§1) Briefly, test compounds (5 μl stock solution, 6×desired final well concentration) were dispensed to 384-well assay plates, TSC2−/− MEF cells (1000 cells per well in 25 μL of media) were added to the plates and the plates were incubated for 72 h (3 days) at 37° C. under an atmosphere of 5% CO2 in a humidified incubator for 3 days. Cell viability was determined with CellTiter-Glo® luminescence assay (Promega) per the manufacturer's instructions. Viability was expressed as a percentage of untreated control cells.
(§2) 35 cell lines were identified as sensitive to apilimod-induced cytotoxicity in this assay. The apilimod-sensitive cells included cells derived from several different cancers including non-Hodgkin's lymphoma, Hodgkin's lymphoma, colorectal cancer, and lung cancer. The most sensitive of those tested were non-Hodgkin's Lymphoma (NHL) cell lines. […] The only NHL subtype not sensitive in this assay was follicular.

HT-29 (Human Colorectal) = tested on: HT-29 (Human Colorectal)
Description: as §1, §2

[2] = tested on: U937 (Human histiocytic lymphoma); conditions: U-937
Description: as §1, §2

[3] = tested on: HT (Human Diffuse Large B Cell Lymphoma -GCB); conditions: Human DLBCL-GCB
Description: as §1, §2

[4] = tested on: EB1 (Human Burkitt's lymphoma)
Description: as §1, §2

[5] = tested on: MDST8 (Human colorectal cancer)
Description: as §1, §2

[6] = tested on: COLO-205 (Human Colorectal)
Description: as §1, §2

[7] = tested on: MOLT-4 (Human T-cell leukemia)
Description: as §1, §2

[8] = tested on: L428 (Human Hodgkin's lymphoma); conditions: L-428
Description: as §1, §2

[9] = tested on: Pfeiffer (Human Diffuse Large B Cell Lymphoma -GCB); conditions: Human DLBCL-GCB
Description: as §1, §2

[10] = tested on: SW1116 (Human colorectal cancer); conditions: SW 1116
Description: as §1, §2

[11] = tested on: CAMA1 (Human breast cancer); conditions: CAMA-1
Description: as §1, §2

[12] = tested on: DLD-1 (Human colorectal cancer)
Description: as §1, §2

[13] = tested on: JeKo-1 (Human Mantle Cell Lymphoma)
Description: as §1, §2

[14] = tested on: H1734 (Human lung carcinoma); conditions: NCI-H1734
Description: as §1, §2

[15] = tested on: SUDHL-6 (Human Diffuse Large B Cell Lymphoma -GCB); conditions: SU-DHL-6, Human DLBCL-GCB
Description: as §1, §2

[16] = tested on: HCT116 (Human colorectal cancer); conditions: HCT-116
Description: as §1, §2

[17] = tested on: KARPAS-422 (Human Diffuse Large B Cell Lymphoma -GCB); conditions: Human DLBCL-GCB
Description: as §1, §2

[18] = tested on: HCT-15 (Human Colorectal)
Description: as §1, §2

SW480 (Human Colorectal) = tested on: SW480 (Human Colorectal)
Description: as §1, §2

[19] = tested on: RKO (Human colorectal cancer)
Description: as §1, §2

[20] = tested on: DOHH-2 (Human Follicular B Cell Lymphoma-GCB); conditions: Human Follicular Lymphoma - DLBCL-GCB
Description: as §1, §2

LOVO (Human Colorectal) = tested on: LOVO (Human Colorectal)
Description: as §1, §2

SW620 (Human Colorectal) = conditions: SW-620
Description: as §1, §2

[21] = tested on: Raji (Human Burkitt's lymphoma)
Description: as §1, §2

[22] = tested on: SW1573 (Human bronchioalveolar)
Description: as §1, §2

[23] = tested on: OCI-Ly19 (Human Diffuse Large B Cell Lymphoma -GCB); conditions: Human DLBCL-GCB
Description: as §1, §2

[24] = tested on: NCI-H1666 (Human bronchioalveolar)
Description: as §1, §2

[25] = tested on: H460 (Human lung carcinoma); conditions: NCI-H460
Description: as §1, §2

[26] = tested on: SUDHL-1 (Human Anaplastic Large Cell Lymphoma); conditions: SU-DHL-1
Description: as §1, §2

[27] = tested on: GRANTA-519 (Human Mantle Cell Lymphoma)
Description: as §1, §2

[28] = tested on: KMH-2 (Human Hodgkin's lymphoma); conditions: KM-H2
Description: as §1, §2

[29] = tested on: COLO-320DM (Human Colorectal)
Description: as §1, §2

[30] = tested on: SUDHL-10 (Human Diffuse Large B Cell Lymphoma -GCB); conditions: SU-DHL10, Human DLBCL-GCB
Description: as §1, §2

[31] = tested on: NCI-H1650 (Human bronchioalveolar)
Description: as §1, §2

[32] = tested on: Namalwa (Human Burkitt's lymphoma)
Description: as §1, §2

[33] = tested on: L540 (Human Hodgkin's lymphoma); conditions: L-540
Description: as §1, §2

[34] = tested on: U-118 MG (Human neuroblastoma)
Description: as §1, §2

[35] = tested on: A172 (Human neuroblastoma); conditions: A 172
Description: as §1, §2

[36] = tested on: NCI-1975 (Human lung carcinoma)
Description: as §1, §2

In the case of `Cc1cccc(/C=N/Nc2cc(N3CCOCC3)nc(OCCc3ccccn3)n2)c1` [apilimod], the IC50 [1] is reported as 382 nM, the IC50 (HT-29 (Human Colorectal)) is reported as greater than 10000 nM and the IC50 [2] is reported as 106 nM. For the same molecule, the IC50 [3] was 642 nM, the IC50 [4] was 174 nM and the IC50 [5] was 1000 nM. The IC50 [6] was 380 nM, the IC50 [7] was 3300 nM and the IC50 [8] was 10000 nM. The IC50 [9] was 2620 nM, the IC50 [10] was 1500 nM and the IC50 [11] was greater than 10000 nM. For the same molecule, the IC50 [12] was greater than 5000 nM, the IC50 ([13]; Homo sapiens, 72 h, 3-day CellTiterGlo assay) was less than 100 nM and the IC50 ([13]; Human Mantle Cell Lymphoma) was 70 nM. It also gave an IC50 [14] of 1500 nM, an IC50 [15] of 80 nM and an IC50 [16] of 125 nM. The IC50 [17] was greater than 10000 nM, the IC50 [18] was 200 nM and the IC50 (SW480 (Human Colorectal)) was 90 nM. It also gave an IC50 [19] greater than 5000 nM, an IC50 [20] of 700 nM and an IC50 (LOVO (Human Colorectal)) greater than 10000 nM. The IC50 (SW620 (Human Colorectal)) was 90 nM, the IC50 [21] was greater than 10000 nM and the IC50 [22] was greater than 20000 nM. The IC50 [23] was 380 nM, the IC50 [24] was 20000 nM and the IC50 [25] was greater than 2000 nM. It also gave an IC50 [26] of 590 nM, an IC50 [27] greater than 10000 nM and an IC50 [28] of 181 nM. The IC50 [29] was 2060 nM, the IC50 [30] was 20 nM and the IC50 [31] was greater than 20000 nM. The IC50 [32] was 600 nM, the IC50 [33] was greater than 1000 nM and the IC50 [34] was greater than 10000 nM. For the same molecule, the IC50 [35] was 2000 nM and the IC50 [36] was greater than 10000 nM.
